Experimental findings from ChEMBL document CHEMBL1201862, “PubChem BioAssay data set” (2004) are described below.

In experiment [1] the target is T1, Voltage-gated N-type calcium channel alpha-1B subunit/Amyloid beta A4 precursor protein-binding family A member 1 (Homo sapiens, UniProt Q00975+Q02410). Format: protein assay.
Experiment [2] has as its target T1, Voltage-gated N-type calcium channel alpha-1B subunit/Amyloid beta A4 precursor protein-binding family A member 1. Format: protein assay. This is another data set of the same source.
In experiment [3] the target is T2, Carboxy-terminal domain RNA polymerase II polypeptide A small phosphatase 1 (Homo sapiens, UniProt Q9GZU7).
T2 sequence (Q9GZU7 whole entry): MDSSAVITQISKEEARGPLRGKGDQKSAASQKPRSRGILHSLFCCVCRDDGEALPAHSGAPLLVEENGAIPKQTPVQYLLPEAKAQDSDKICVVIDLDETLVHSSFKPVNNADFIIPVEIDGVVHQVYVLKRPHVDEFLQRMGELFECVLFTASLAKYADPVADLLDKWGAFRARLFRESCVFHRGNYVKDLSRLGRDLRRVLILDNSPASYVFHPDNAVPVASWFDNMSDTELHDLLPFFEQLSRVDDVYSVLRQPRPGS
Nature of the experiment: CTDSP1 inhibitors, concentration-response, biochemical, absorbance readout, ultra-high-throughput screen actives (AID 540297). The format is functional.

For experiment [4], the target named is T3, Small ubiquitin-related modifier 1 (Homo sapiens, UniProt P63165). The experiment can be described thus: SUMO1 protein interaction blockers, potency – biochemical, fluorescence polarization, uHTS hits, dose response (AID 624382). The format is functional. The settings on record: read-out: IC50_Mean.
T3 sequence (P63165 whole entry): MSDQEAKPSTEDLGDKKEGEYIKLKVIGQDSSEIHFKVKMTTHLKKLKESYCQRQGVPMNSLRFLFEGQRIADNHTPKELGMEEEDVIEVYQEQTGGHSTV
Experiment [5] deals with T3, Small ubiquitin-related modifier 1. Nature of the experiment: SUMO1 protein-protein binding blockers, potency – biochemical, FRET, dose response (AID 624383). The format is functional. To be noted: read-out: IC50_Mean.
Experiment [6] can be described thus: activation of miR-122 Renilla sensor silencing – cell-based, Huh7 psiCHECK-miR122, Renilla luciferase, cherry-picked, dose response (AID 651956).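 Note: huh7 hepatoma cells stably carrying a psiCHECK-2 miR-122 sensor plasmid; renilla luciferase signal reporting endogenous miR-122 activity after 48 h compound exposure.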 The format is functional.
In experiment [7] the target is T4, Low molecular weight phosphotyrosine protein phosphatase (Homo sapiens, UniProt P24666).
T4 sequence (P24666 whole entry): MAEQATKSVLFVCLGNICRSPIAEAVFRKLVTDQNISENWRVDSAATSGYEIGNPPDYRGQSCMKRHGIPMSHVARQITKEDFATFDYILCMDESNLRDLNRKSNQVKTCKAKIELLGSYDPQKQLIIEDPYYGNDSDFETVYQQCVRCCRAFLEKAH
Format: functional. To be noted: read-out: IC50_Mean.

For experiment [8], the target named is T4, Low molecular weight phosphotyrosine protein phosphatase. The format is functional. The settings on record: read-out: IC50_Mean. The source holds these as a separate data set.
A short description of experiment [9]: Luminescence Cell-Based Dose Retest to Confirm Inhibitors of Cancer Stem Cells. [Related pubchem assays (depositor defined):AID2717, AID2721]. The settings on record: Homo sapiens. The format is functional.
The target in experiment [10] is T5, Microphthalmia-associated transcription factor (Homo sapiens, UniProt O75030).
T5 sequence (O75030 whole entry): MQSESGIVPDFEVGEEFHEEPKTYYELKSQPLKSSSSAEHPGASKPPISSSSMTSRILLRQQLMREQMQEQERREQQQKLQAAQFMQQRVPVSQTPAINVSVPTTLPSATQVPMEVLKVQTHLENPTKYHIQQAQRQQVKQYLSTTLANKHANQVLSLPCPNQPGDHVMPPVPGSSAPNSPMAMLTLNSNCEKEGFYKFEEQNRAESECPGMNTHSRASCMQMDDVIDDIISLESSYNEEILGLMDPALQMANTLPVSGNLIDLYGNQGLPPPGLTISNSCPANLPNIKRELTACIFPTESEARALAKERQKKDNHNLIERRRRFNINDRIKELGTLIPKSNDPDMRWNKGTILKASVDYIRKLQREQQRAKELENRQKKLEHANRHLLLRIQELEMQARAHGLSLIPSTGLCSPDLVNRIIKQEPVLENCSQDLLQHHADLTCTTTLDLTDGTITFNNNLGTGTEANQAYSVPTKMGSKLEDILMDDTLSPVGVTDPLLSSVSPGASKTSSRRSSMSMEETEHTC
The experiment can be described thus: reducers of TRPM1 reporter luminescence, concentration series – cell-based, SK-MEL-5, cherry-picked, set 3, MITF inhibitor project, dose response (AID 493073).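 Note: SK-MEL-5 melanoma cells with luciferase driven by the MITF target TRPM1 promoter.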 The format is functional.

Experiment [11] is described as follows: Fluorescence-based cell-based high throughput dose response assay for inhibitors of the interaction of nucleotide-binding oligomerization domain containing 2 (NOD2) and the receptor-interacting serine-threonine kinase 2 (RIPK2). The format is functional. To be noted: Homo sapiens.
Experiment [12] concerns the target T6, Tyrosine-protein phosphatase non-receptor type 11 (Homo sapiens, UniProt Q06124).
T6 sequence (Q06124 whole entry): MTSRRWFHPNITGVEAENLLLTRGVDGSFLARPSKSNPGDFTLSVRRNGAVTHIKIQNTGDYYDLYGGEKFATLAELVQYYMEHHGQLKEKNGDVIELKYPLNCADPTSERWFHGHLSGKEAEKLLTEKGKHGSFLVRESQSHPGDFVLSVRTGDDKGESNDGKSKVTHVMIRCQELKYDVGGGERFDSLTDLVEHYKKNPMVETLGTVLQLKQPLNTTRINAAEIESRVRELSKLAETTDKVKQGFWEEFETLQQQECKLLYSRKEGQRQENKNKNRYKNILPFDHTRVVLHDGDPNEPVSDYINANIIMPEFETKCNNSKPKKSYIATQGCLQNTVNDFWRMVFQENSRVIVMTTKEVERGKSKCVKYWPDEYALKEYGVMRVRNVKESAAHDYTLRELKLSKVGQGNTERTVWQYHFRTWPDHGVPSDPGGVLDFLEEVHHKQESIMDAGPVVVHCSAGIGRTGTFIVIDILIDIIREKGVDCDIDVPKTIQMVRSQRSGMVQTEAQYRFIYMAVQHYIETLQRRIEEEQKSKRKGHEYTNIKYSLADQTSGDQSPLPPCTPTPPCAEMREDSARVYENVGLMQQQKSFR
Nature of the experiment: PTPN11 enzyme inhibitors – biochemical, selectivity assay for STEP inhibitor project, dose response (AID 602367). Format: functional. The settings on record: read-out: IC50_Mean.

For experiment [13], the target named is T7, Tyrosine-protein phosphatase non-receptor type 5 (Homo sapiens, UniProt P54829).
T7 sequence (P54829 whole entry): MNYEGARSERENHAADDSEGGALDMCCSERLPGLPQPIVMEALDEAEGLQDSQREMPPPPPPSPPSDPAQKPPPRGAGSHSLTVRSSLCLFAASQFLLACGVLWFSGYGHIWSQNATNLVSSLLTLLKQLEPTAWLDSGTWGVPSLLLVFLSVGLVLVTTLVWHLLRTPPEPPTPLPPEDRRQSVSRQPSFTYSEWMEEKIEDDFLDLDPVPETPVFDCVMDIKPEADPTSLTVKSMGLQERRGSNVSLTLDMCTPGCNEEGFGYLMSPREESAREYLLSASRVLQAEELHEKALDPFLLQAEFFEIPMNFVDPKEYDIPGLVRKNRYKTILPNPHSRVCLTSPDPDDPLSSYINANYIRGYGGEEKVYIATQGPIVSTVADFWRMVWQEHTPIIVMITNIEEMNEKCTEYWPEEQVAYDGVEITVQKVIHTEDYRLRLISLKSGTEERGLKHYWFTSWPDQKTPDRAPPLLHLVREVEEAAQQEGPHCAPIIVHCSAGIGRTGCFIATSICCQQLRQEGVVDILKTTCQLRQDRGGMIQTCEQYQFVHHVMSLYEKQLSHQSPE
The experiment can be described thus: PTPN5 enzyme inhibition – biochemical, fluorescence intensity, uHTS hits, confirmation (AID 602372). The format is functional. To be noted: read-out: IC50_Mean.

Experiment [14] addresses Dual specificity protein phosphatase 3 (Homo sapiens, UniProt P51452). Nature of the experiment: VHR phosphatase inhibition, dose response, selectivity assay for STEP inhibitor project, biochemical (AID 602374). To be noted: read-out: IC50_Mean. Format: functional.
The nature of experiment [15]: viability loss in THP-1 monocytes – THP-1 cells, cytotoxicity control for Vif-APOBEC3G degradation inhibitor project, dose response (AID 1117359). The format is functional. The settings on record: THP-1.
Experiment [16] concerns INS1. The experiment can be described thus: INS-1E survival protection against cytokine death – cell-based, luminescence, retest, dose response (AID 449756).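 Note: cell death triggered by IL-1 beta plus TNF-alpha plus IFN-gamma mixture; protective hits raise ATP signal compared with cytokine alone wells.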 The format is functional. The settings on record: Rattus norvegicus.
Experiment [17] can be described thus: viability loss in HeLa cells – cytotoxicity control for MgcRacGAP inhibitor project, dose response (AID 624300). Format: functional.
In experiment [18] the target is T8, Rac GTPase-activating protein 1 (Homo sapiens, UniProt Q9H0H5).
T8 sequence (Q9H0H5 whole entry): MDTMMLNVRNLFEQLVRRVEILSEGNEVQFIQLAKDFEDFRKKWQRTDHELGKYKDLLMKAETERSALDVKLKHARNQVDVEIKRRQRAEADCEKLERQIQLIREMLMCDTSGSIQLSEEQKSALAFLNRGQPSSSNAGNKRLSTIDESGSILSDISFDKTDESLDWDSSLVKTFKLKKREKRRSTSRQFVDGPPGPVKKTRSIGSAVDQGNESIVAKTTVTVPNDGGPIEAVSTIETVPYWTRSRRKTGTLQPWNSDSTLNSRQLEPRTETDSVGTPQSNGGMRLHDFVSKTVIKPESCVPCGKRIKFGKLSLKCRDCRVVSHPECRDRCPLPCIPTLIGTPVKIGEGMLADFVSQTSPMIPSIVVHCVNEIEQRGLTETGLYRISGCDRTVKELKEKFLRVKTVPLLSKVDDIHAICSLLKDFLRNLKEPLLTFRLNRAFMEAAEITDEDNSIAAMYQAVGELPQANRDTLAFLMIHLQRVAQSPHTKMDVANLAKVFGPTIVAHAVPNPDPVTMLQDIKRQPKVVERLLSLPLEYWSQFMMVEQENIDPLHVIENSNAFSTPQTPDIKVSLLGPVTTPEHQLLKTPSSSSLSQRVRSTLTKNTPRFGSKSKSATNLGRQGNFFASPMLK
Nature of the experiment: blockers of MgcRacGAP-driven Rac1 GTP hydrolysis – biochemical, ADP Hunter fluorescence, primary and confirmatory, confirmation (AID 624330). The format is functional.

Activity calls are given as the source filed them.

T1 sequence (Q00975 whole entry): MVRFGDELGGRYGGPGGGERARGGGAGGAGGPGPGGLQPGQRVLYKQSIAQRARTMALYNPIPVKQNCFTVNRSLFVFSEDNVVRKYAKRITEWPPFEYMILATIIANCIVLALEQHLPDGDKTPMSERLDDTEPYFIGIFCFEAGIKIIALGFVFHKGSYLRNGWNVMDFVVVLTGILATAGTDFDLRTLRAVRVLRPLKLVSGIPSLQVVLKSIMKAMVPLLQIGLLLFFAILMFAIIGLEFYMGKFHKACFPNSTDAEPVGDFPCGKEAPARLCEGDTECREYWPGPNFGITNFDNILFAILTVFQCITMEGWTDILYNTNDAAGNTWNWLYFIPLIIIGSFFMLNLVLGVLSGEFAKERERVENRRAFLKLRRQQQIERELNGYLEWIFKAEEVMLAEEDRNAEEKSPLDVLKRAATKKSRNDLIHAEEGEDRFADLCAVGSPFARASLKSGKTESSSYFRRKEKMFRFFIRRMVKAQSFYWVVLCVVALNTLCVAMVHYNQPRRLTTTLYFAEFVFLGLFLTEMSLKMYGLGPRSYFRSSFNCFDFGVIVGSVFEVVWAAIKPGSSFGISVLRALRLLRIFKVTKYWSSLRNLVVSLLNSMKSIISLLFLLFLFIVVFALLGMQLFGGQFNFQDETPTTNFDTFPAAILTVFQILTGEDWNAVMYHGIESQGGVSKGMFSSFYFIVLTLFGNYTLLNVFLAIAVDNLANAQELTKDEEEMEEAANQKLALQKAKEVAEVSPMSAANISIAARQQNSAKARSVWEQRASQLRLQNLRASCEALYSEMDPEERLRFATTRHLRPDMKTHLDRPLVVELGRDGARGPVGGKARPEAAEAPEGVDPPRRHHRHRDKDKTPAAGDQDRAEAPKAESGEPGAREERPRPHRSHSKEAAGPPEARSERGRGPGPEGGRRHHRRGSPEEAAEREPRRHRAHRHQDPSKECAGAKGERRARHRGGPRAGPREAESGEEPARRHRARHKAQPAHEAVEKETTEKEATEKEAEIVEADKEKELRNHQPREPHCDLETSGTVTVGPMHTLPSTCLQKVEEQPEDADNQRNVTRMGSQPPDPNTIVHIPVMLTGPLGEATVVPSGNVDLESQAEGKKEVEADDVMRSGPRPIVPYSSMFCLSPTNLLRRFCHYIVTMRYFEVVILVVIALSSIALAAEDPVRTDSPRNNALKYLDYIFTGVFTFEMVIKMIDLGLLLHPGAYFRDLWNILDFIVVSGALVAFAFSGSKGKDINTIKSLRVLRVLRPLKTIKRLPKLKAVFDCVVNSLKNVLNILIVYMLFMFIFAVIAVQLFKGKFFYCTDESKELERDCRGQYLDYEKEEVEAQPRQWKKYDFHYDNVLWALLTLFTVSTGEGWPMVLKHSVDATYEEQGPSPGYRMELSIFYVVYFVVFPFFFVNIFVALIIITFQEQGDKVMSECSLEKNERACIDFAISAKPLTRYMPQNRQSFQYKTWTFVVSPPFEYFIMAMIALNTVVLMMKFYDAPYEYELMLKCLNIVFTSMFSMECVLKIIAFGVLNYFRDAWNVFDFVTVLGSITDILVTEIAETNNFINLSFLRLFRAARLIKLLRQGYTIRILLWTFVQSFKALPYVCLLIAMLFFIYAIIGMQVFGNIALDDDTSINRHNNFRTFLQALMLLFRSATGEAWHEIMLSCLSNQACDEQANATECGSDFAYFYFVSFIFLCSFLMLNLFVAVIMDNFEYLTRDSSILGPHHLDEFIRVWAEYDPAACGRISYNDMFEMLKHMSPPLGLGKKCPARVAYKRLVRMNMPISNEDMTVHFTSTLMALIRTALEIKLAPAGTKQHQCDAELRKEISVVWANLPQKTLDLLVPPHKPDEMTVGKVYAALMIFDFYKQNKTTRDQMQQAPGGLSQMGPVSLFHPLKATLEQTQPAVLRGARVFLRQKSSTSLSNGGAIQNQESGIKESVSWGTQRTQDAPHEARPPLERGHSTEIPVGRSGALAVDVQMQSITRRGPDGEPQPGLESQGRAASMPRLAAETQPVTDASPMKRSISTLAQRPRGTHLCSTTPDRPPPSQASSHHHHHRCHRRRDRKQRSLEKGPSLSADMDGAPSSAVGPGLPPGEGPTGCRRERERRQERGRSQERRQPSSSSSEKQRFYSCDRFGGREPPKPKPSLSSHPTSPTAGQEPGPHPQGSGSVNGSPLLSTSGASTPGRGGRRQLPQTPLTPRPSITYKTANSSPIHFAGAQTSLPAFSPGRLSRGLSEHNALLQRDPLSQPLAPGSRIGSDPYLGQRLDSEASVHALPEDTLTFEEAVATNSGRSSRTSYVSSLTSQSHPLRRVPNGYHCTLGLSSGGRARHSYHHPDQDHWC
T1 sequence (Q02410 whole entry): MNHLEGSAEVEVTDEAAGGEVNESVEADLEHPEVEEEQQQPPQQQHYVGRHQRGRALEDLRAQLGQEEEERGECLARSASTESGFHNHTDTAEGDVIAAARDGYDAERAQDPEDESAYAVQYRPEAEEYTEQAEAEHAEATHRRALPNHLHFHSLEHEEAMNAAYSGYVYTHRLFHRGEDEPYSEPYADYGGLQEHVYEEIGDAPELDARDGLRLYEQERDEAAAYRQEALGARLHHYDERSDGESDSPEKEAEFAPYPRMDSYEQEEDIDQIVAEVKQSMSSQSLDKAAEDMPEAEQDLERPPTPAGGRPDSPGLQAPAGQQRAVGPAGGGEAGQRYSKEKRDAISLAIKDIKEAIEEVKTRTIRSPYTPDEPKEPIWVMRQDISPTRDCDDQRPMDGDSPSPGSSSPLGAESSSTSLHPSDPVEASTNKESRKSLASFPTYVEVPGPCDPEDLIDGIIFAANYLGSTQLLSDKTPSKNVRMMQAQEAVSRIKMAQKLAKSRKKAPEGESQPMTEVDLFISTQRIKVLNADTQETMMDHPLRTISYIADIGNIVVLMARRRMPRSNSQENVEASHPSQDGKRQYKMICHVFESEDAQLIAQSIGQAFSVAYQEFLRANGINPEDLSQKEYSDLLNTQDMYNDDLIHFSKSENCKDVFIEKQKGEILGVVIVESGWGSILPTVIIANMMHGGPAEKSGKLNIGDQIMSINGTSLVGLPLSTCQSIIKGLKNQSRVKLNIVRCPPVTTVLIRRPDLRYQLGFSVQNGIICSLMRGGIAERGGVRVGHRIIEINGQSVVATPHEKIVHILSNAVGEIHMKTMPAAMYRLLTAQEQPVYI
Chain of Dual specificity protein phosphatase 3 (P51452 whole entry): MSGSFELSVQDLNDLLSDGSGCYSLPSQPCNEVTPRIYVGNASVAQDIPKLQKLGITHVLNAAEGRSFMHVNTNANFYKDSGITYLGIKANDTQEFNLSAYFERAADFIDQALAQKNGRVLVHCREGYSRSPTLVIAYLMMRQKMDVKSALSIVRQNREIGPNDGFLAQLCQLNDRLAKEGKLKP

`C=Cc1ccc(C(=O)N2CCCC(CCC(=O)N3CCN(c4ccccn4)CC3)C2)cc1` (stereo unspecified): the IC50 in experiment [1] is 8.01 µM (active); in [2], > 50 µM (inactive); in experiment [3], 22.2 µM (active); in [4], > 66.6 µM (inactive); in [5] it was 20.8 µM (inactive).

As to `COCC(=O)N(C)C[C@H]1Oc2cc(C#Cc3cccnc3)ccc2S(=O)(=O)N([C@@H](C)CO)C[C@H]1C`, in [6], the half-maximal activity concentration (AC50) is 1.09 µM (active).

On to `CCOc1cc(/C=C(/C#N)C(=O)Nc2ccc(OC)cc2)ccc1OCc1ccc(C(=O)O)cc1`, for which the IC50 in experiment [1] was 13.1 µM (active); in experiment [2], > 50 µM (inactive); in experiment [7], 6.48 µM (active); in experiment [8], 9.46 µM (active).

In the case of `O=C(/C=C/c1ccc(Cl)c([N+](=O)[O-])c1)c1ccc(O)cc1`, the AC50 in [9] was 4.36 µM (active); in experiment [10], 17.4 µM (active). The IC50 in experiment [11] is 7.04 µM (active).

On to `NN=C1C(Cl)=C(Cl)C(Cl)=C1Cl`, for which the IC50 in experiment [12] is 1.45 µM (active); in experiment [13], > 80 µM (inactive); in [14] it was 1.99 µM (active); in experiment [7] it was 7.19 µM (active); in experiment [8] it was 38.7 µM (inactive). Also, the CC50 in experiment [15] was > 40 µM (active).

Take `COc1ccc(Br)cc1CN1CCN(Cc2c[nH]c3ccccc23)CC1`: the AC50 in [16] was 6.6 µM (active). Also, the CC50 in experiment [17] is 79.4 µM (active). Besides, the IC50 in experiment [18] was 86 µM (active).

In the case of `O=C(N/N=C/c1ccc(OC(=O)c2ccc3c(c2)OCO3)cc1)c1cncc(Br)c1`, the IC50 was 1.8 µM (active) in experiment [3], 6.29 µM (active) in experiment [7] and 1.82 µM (active) in experiment [8].

On to `C[C@@H]1CN([C@H](C)CO)S(=O)(=O)c2ccc(C#CC3(O)CCCC3)cc2O[C@@H]1CN(C)C(=O)c1cccnc1`, for which the concentration at half-maximal activity (AC50) in [6] is 9.98 µM (active).
